Assay results taken from PubChem BioAssay AID256 (DTP/NCI, 2004).
Values joined by “and” are separate entries in the source; they are usually repeats but may differ in a detail not shown here. Equal entries are not always repeated. Toxic doses and inconclusive results are not listed.

System: CD2F1 mice, L1210 leukemia ip, survival T/C
Experiment: NCI In Vivo Anticancer Drug Screen. Data for tumor model L1210 Leukemia (intraperitoneal) in CD2F1 (CDF1) mice
Details: higher = longer survival
In short: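 Vehicle-treated tumor-bearing mice served as controls (C) for compound-treated mice (T). Reported figure is T divided by C.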

Nc1ncn(C2OC(CO)C(O)C2O)c(=O)n1 (stereo unspecified)
T/C (endpoint: mean survival time, dose: 1.56 mg/kg/injection, schedule: Q01DX009 (ip), vehicle: saline): 155 % of control and 166 % of control | T/C (endpoint: mean survival time, dose: 1.56 mg/kg/injection, schedule: Q04DX003 (ip), vehicle: saline): 117 % of control | T/C (endpoint: mean survival time, dose: 3.12 mg/kg/injection, schedule: Q01DX009 (ip), vehicle: saline): 176 % of control | T/C (endpoint: mean survival time, dose: 3.12 mg/kg/injection, schedule: Q03HX024 (ip), vehicle: saline): 296 % of control | T/C (endpoint: mean survival time, dose: 3.12 mg/kg/injection, schedule: Q04DX003 (ip), vehicle: saline): 119 % of control and 120 % of control and 123 % of control | T/C (endpoint: mean survival time, dose: 6.25 mg/kg/injection, schedule: Q03HX024 (ip), vehicle: saline): 325 % of control | T/C (endpoint: mean survival time, dose: 6.25 mg/kg/injection, schedule: Q04DX003 (ip), vehicle: saline): 121 % of control and 123 % of control | T/C (endpoint: mean survival time, dose: 10.0 mg/kg/injection, schedule: Q04DX003 (ip), vehicle: saline): 112 % of control | T/C (endpoint: mean survival time, dose: 12.5 mg/kg/injection, schedule: Q03HX024 (ip), vehicle: saline): 353 % of control | T/C (endpoint: mean survival time, dose: 12.5 mg/kg/injection, schedule: Q04DX003 (ip), vehicle: saline): 151 % of control | T/C (endpoint: mean survival time, dose: 25.0 mg/kg/injection, schedule: Q03HX024 (ip), vehicle: saline): 295 % of control | T/C (endpoint: mean survival time, dose: 25.0 mg/kg/injection, schedule: Q04DX003 (ip), vehicle: saline): 167 % of control | T/C (endpoint: mean survival time, dose: 50.0 mg/kg/injection, schedule: Q03HX024 (ip), vehicle: saline): 248 % of control | T/C (endpoint: mean survival time, dose: 50.0 mg/kg/injection, schedule: Q04DX003 (ip), vehicle: saline): 163 % of control and 173 % of control | T/C (endpoint: mean survival time, dose: 100.0 mg/kg/injection, schedule: Q03HX024 (ip), vehicle: saline): 124 % of control | T/C (endpoint: mean survival time, dose: 200.0 mg/kg/injection, schedule: Q04DX003 (ip), vehicle: saline): 182 % of control and 190 % of control and 200 % of control | T/C (endpoint: mean survival time, dose: 400.0 mg/kg/injection, schedule: Q04DX003 (ip), vehicle: saline): 222 % of control | T/C (endpoint: mean survival time, dose: 800.0 mg/kg/injection, schedule: Q04DX003 (ip), vehicle: saline): 269 % of control | T/C (endpoint: mean survival time, dose: 1600.0 mg/kg/injection, schedule: Q04DX003 (ip), vehicle: saline): 222 % of control | T/C (endpoint: median survival time, dose: 1.56 mg/kg/injection, schedule: Q01DX009 (ip), vehicle: other): 156 % of control | T/C (endpoint: median survival time, dose: 2.3 mg/kg/injection, schedule: Q03HX024 (ip), vehicle: DMSO): 292 % of control | T/C (endpoint: median survival time, dose: 3.12 mg/kg/injection, schedule: Q01DX009 (ip), vehicle: other): 163 % of control and 172 % of control | T/C (endpoint: median survival time, dose: 3.12 mg/kg/injection, schedule: Q01DX009 (ip), vehicle: saline): 162 % of control and 177 % of control | T/C (endpoint: median survival time, dose: 4.0 mg/kg/injection, schedule: Q03HX024 (ip), vehicle: saline): 348 % of control | T/C (endpoint: median survival time, dose: 6.25 mg/kg/injection, schedule: Q01DX009 (ip), vehicle: DMSO): 210 % of control and 228 % of control | T/C (endpoint: median survival time, dose: 6.25 mg/kg/injection, schedule: Q01DX009 (ip), vehicle: other): 192 % of control and 193 % of control | T/C (endpoint: median survival time, dose: 6.25 mg/kg/injection, schedule: Q01DX009 (ip), vehicle: saline): 198 % of control and 202 % of control and 212 % of control | T/C (endpoint: median survival time, dose: 6.25 mg/kg/injection, schedule: Q01DX009 (oral), vehicle: DMSO): 191 % of control | T/C (endpoint: median survival time, dose: 7.0 mg/kg/injection, schedule: Q03HX008 (ip), vehicle: DMSO): 179 % of control | T/C (endpoint: median survival time, dose: 11.2 mg/kg/injection, schedule: Q01DX005 (ip), vehicle: DMSO): 181 % of control | T/C (endpoint: median survival time, dose: 11.2 mg/kg/injection, schedule: Q01DX005 (iv), vehicle: DMSO): 176 % of control | T/C (endpoint: median survival time, dose: 12.5 mg/kg/injection, schedule: Q01DX009 (ip), vehicle: DMSO): 224 % of control and 258 % of control | T/C (endpoint: median survival time, dose: 12.5 mg/kg/injection, schedule: Q01DX009 (ip), vehicle: other): 214 % of control and 219 % of control | T/C (endpoint: median survival time, dose: 12.5 mg/kg/injection, schedule: Q01DX009 (oral), vehicle: DMSO): 225 % of control | T/C (endpoint: median survival time, dose: 14.0 mg/kg/injection, schedule: Q03HX008 (ip), vehicle: DMSO): 174 % of control | T/C (endpoint: median survival time, dose: 22.5 mg/kg/injection, schedule: Q01DX005 (ip), vehicle: DMSO): 187 % of control | T/C (endpoint: median survival time, dose: 22.5 mg/kg/injection, schedule: Q01DX005 (iv), vehicle: DMSO): 201 % of control | T/C (endpoint: median survival time, dose: 25.0 mg/kg/injection, schedule: Q01DX009 (ip), vehicle: DMSO): 260 % of control and 273 % of control | T/C (endpoint: median survival time, dose: 25.0 mg/kg/injection, schedule: Q01DX009 (ip), vehicle: other): 237 % of control and 265 % of control | T/C (endpoint: median survival time, dose: 25.0 mg/kg/injection, schedule: Q01DX009 (oral), vehicle: DMSO): 233 % of control | T/C (endpoint: median survival time, dose: 28.1 mg/kg/injection, schedule: Q03HX008 (ip), vehicle: DMSO): 186 % of control | T/C (endpoint: median survival time, dose: 30.0 mg/kg/injection, schedule: Q01DX009 (ip), vehicle: saline): 267 % of control and 278 % of control | T/C (endpoint: median survival time, dose: 37.5 mg/kg/injection, schedule: Q04DX003 (ip), vehicle: DMSO): 163 % of control | T/C (endpoint: median survival time, dose: 44.0 mg/kg/injection, schedule: Q01DX009 (ip), vehicle: saline): 278 % of control and 284 % of control | T/C (endpoint: median survival time, dose: 45.0 mg/kg/injection, schedule: Q01DX005 (ip), vehicle: DMSO): 208 % of control | T/C (endpoint: median survival time, dose: 45.0 mg/kg/injection, schedule: Q01DX005 (iv), vehicle: DMSO): 212 % of control | T/C (endpoint: median survival time, dose: 50.0 mg/kg/injection, schedule: Q01DX009 (ip), vehicle: DMSO): 289 % of control and 310 % of control | T/C (endpoint: median survival time, dose: 50.0 mg/kg/injection, schedule: Q01DX009 (ip), vehicle: other): 262 % of control and 289 % of control | T/C (endpoint: median survival time, dose: 50.0 mg/kg/injection, schedule: Q01DX009 (oral), vehicle: DMSO): 266 % of control | T/C (endpoint: median survival time, dose: 56.2 mg/kg/injection, schedule: Q01DX001 (ip), vehicle: DMSO): 123 % of control | T/C (endpoint: median survival time, dose: 56.2 mg/kg/injection, schedule: Q03HX008 (ip), vehicle: DMSO): 191 % of control | T/C (endpoint: median survival time, dose: 67.0 mg/kg/injection, schedule: Q01DX009 (ip), vehicle: saline): 326 % of control and 328 % of control | T/C (endpoint: median survival time, dose: 75.0 mg/kg/injection, schedule: Q04DX003 (ip), vehicle: DMSO): 173 % of control | T/C (endpoint: median survival time, dose: 90.0 mg/kg/injection, schedule: Q01DX005 (ip), vehicle: DMSO): 221 % of control | T/C (endpoint: median survival time, dose: 90.0 mg/kg/injection, schedule: Q01DX005 (iv), vehicle: DMSO): 242 % of control | T/C (endpoint: median survival time, dose: 100.0 mg/kg/injection, schedule: Q01DX009 (ip), vehicle: DMSO): 172 % of control | T/C (endpoint: median survival time, dose: 100.0 mg/kg/injection, schedule: Q01DX009 (ip), vehicle: other): 150 % of control and 277 % of control | T/C (endpoint: median survival time, dose: 100.0 mg/kg/injection, schedule: Q01DX009 (oral), vehicle: DMSO): 310 % of control | T/C (endpoint: median survival time, dose: 112.5 mg/kg/injection, schedule: Q03HX008 (ip), vehicle: DMSO): 198 % of control | T/C (endpoint: median survival time, dose: 150.0 mg/kg/injection, schedule: Q04DX003 (ip), vehicle: DMSO): 198 % of control | T/C (endpoint: median survival time, dose: 180.0 mg/kg/injection, schedule: Q01DX005 (ip), vehicle: DMSO): 242 % of control | T/C (endpoint: median survival time, dose: 180.0 mg/kg/injection, schedule: Q01DX005 (iv), vehicle: DMSO): 276 % of control | T/C (endpoint: median survival time, dose: 200.0 mg/kg/injection, schedule: Q01DX009 (ip), vehicle: DMSO): 123 % of control | T/C (endpoint: median survival time, dose: 225.0 mg/kg/injection, schedule: Q01DX001 (iv), vehicle: DMSO): 157 % of control | T/C (endpoint: median survival time, dose: 225.0 mg/kg/injection, schedule: Q03HX008 (ip), vehicle: DMSO): 180 % of control | T/C (endpoint: median survival time, dose: 300.0 mg/kg/injection, schedule: Q04DX003 (ip), vehicle: DMSO): 243 % of control | T/C (endpoint: median survival time, dose: 400.0 mg/kg/injection, schedule: Q01DX009 (ip), vehicle: DMSO): 117 % of control | T/C (endpoint: median survival time, dose: 400.0 mg/kg/injection, schedule: Q01DX009 (ip), vehicle: saline): 113 % of control | T/C (endpoint: median survival time, dose: 400.0 mg/kg/injection, schedule: Q01DX009 (oral), vehicle: DMSO): 117 % of control | T/C (endpoint: median survival time, dose: 600.0 mg/kg/injection, schedule: Q04DX003 (ip), vehicle: DMSO): 252 % of control | T/C (endpoint: median survival time, dose: 900.0 mg/kg/injection, schedule: Q01DX001 (ip), vehicle: DMSO): 162 % of control | T/C (endpoint: median survival time, dose: 1200.0 mg/kg/injection, schedule: Q04DX003 (ip), vehicle: DMSO): 284 % of control | T/C (endpoint: median survival time, dose: 1800.0 mg/kg/injection, schedule: Q01DX001 (ip), vehicle: DMSO): 191 % of control | T/C (endpoint: median survival time, dose: 2400.0 mg/kg/injection, schedule: Q04DX003 (ip), vehicle: DMSO): 290 % of control | T/C (endpoint: median survival time, dose: 3600.0 mg/kg/injection, schedule: Q01DX001 (ip), vehicle: DMSO): 223 % of control

Cc1cn(C2OC(CO)C(O)C2O)c([Se])nc1=O (stereo unspecified)
T/C (endpoint: mean survival time, dose: 50.0 mg/kg/injection, schedule: Q01DX005 (ip), vehicle: water): 97 % of control | T/C (endpoint: mean survival time, dose: 100.0 mg/kg/injection, schedule: Q01DX005 (ip), vehicle: water): 90 % of control | T/C (endpoint: mean survival time, dose: 200.0 mg/kg/injection, schedule: Q01DX005 (ip), vehicle: water): 90 % of control

Fc1ccc2nc(C(F)(F)F)cc(Br)c2c1
T/C (endpoint: mean survival time, dose: 100.0 mg/kg/injection, schedule: Q04DX003 (ip), vehicle: saline with Tween-80): 103 % of control | T/C (endpoint: mean survival time, dose: 200.0 mg/kg/injection, schedule: Q04DX003 (ip), vehicle: saline with Tween-80): 98 % of control | T/C (endpoint: mean survival time, dose: 400.0 mg/kg/injection, schedule: Q04DX003 (ip), vehicle: saline with Tween-80): 101 % of control
